Assays:
Coagulation factor X = Coagulation factor X (Homo sapiens, UniProt P00742); assay: Inhibition against human coagulation factor Xa
Prothrombin [1] = target: T1, Prothrombin (Homo sapiens, UniProt P00734); assay: Inhibition against human thrombin
Coagulation factor VII = target: T2, Coagulation factor VII (Homo sapiens, UniProt P08709); assay: Inhibition against human Coagulation factor VII
T2 sequence (P08709 whole entry): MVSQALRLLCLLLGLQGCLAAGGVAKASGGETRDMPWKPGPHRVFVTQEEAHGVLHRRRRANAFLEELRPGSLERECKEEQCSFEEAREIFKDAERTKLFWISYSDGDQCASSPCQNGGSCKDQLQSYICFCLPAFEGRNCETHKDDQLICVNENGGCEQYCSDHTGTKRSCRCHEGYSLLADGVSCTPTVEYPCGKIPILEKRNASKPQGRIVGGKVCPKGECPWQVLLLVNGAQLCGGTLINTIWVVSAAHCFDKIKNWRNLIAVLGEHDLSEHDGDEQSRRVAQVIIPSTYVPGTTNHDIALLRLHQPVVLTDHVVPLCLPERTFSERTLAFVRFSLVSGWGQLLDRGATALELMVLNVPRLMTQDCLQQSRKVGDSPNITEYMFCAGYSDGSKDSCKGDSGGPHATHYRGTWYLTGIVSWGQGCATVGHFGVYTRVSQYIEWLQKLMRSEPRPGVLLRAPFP

[2] = (§1) Concentration necessary to double the time required for clot formation induced by the addition of 4 NIH u/mL (final concentration) bovine thrombin.; format: functional
Prothrombin [3] = target: T1, Prothrombin; assay: Concentration necessary to double the time required for clot formation induced by the addition of 4 NIH u/mL(final concentration) bovine thrombin.; format: functional
Serine protease 1 = Serine protease 1 (Homo sapiens, UniProt P07477); assay: Inhibition of trypsin
[4] = Compound was tested for inhibition against tissue factor.
[5] = Compound was tested for inhibition against Coagulation factor I
Prothrombin [6] = target: T1, Prothrombin; assay: as §1; format: functional

Chain of Serine protease 1 (P07477 whole entry): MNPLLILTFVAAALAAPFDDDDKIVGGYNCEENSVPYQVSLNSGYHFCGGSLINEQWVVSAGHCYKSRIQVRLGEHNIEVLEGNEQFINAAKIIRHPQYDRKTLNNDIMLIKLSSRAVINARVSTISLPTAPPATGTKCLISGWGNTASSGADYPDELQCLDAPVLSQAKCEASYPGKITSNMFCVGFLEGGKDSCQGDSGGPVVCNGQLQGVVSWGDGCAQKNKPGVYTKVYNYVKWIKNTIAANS
Chain of Coagulation factor X (P00742 41-179 limits assumed): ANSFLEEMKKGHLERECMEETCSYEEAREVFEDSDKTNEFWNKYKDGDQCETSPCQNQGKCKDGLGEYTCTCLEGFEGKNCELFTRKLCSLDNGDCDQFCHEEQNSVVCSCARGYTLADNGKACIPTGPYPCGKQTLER
Chain of Coagulation factor X (P00742 235-488 limits assumed): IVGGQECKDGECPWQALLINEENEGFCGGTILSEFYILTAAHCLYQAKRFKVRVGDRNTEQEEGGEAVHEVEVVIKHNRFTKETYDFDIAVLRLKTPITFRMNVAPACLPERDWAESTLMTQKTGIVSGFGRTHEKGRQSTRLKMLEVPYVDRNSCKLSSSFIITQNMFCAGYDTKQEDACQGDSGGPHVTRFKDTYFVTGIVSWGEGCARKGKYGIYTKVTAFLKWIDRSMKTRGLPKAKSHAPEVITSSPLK

Compound | Ki (Coagulation factor X) | Ki (Prothrombin [1]) | Ki (Coagulation factor VII) | Ki [2] | Ki (Prothrombin [3]) | Ki (Serine protease 1) | Ki [4] | Ki [5] | Ki (Prothrombin [6])
CC1(C)[C@@H]2C[C@H]3OB([C@H](CCCCN)NC(=O)Cn4nc(Cc5ccccc5)nc4Cc4ccccc4)O[C@@]3(C)[C@H]1C2 | > 6000 nM | 41 nM | 3940 nM | – | – | – | – | – | –
CN(CC(=O)N[C@@H](CCCSC(=N)N)B(O)O)C(=O)CCc1ccccc1 | – | 0.3 nM | – | – | – | – | – | – | –
COC(=O)Cc1nc(Cc2ccccc2)n(CC(=O)N[C@@H](CCCCN)B2O[C@@H]3C[C@@H]4C[C@@H](C4(C)C)[C@]3(C)O2)n1 | > 6000 nM | 85 nM | 14000 nM | – | – | – | – | – | –
CC1(C)[C@@H]2C[C@H]3OB([C@H](CCCCN)NC(=O)Cn4nc(CO)nc4Cc4ccccc4)O[C@@]3(C)[C@H]1C2 | > 6000 nM | 84 nM | 7700 nM | – | – | – | – | – | –
CC1(C)[C@@H]2C[C@H]3OB([C@H](CCCCN)NC(=O)Cn4ncnc4Cc4ccccc4)O[C@@]3(C)[C@H]1C2 | – | 31 nM | – | 2500 nM | – | – | – | – | –
Cc1nc(Cc2ccccc2)n(CC(=O)N[C@@H](CCCCN)B2O[C@@H]3C[C@@H]4C[C@@H](C4(C)C)[C@]3(C)O2)n1 | > 6000 nM | 8.6 nM | 7160 nM | – | 6000 nM | – | – | – | –
CSCc1nc(Cc2ccccc2)n(CC(=O)N[C@@H](CCCCN)B2O[C@@H]3C[C@@H]4C[C@@H](C4(C)C)[C@]3(C)O2)n1 | > 6000 nM | 65 nM | 2500 nM | – | 4500 nM | 1.9 nM | – | – | –
CC(C)(C)OC(=O)/C=C/c1nc(Cc2ccccc2)n(CC(=O)N[C@@H](CCCCN)B2O[C@@H]3C[C@@H]4C[C@@H](C4(C)C)[C@]3(C)O2)n1 | > 6000 nM | 150 nM | 2700 nM | – | – | 36 nM | 2800 nM | – | –
C[S+]([O-])Cc1nc(Cc2ccccc2)n(CC(=O)N[C@@H](CCCCN)B2O[C@@H]3C[C@@H]4C[C@@H](C4(C)C)[C@]3(C)O2)n1 (some centres not stated) | 6000 nM | 47 nM | 2100 nM | – | – | 4.8 nM | 3600 nM | – | –
CC1(C)[C@@H]2C[C@H]3OB([C@H](CCCCN)NC(=O)Cn4nc(-c5ccccc5)nc4Cc4ccccc4)O[C@@]3(C)[C@H]1C2 | – | 173 nM | – | – | – | – | – | – | –
CC1(C)[C@@H]2C[C@H]3OB([C@H](CCCCN)NC(=O)Cn4ncnc4CCCc4ccccc4)O[C@@]3(C)[C@H]1C2 | – | > 42 nM | – | – | – | – | – | – | –
CC(C)C(=O)NCc1nc(Cc2ccccc2)n(CC(=O)N[C@@H](CCCCN)B2O[C@@H]3C[C@@H]4C[C@@H](C4(C)C)[C@]3(C)O2)n1 | > 6000 nM | 160 nM | > 3000 nM | – | – | 9.6 nM | – | – | –
CC1(C)[C@@H]2C[C@H]3OB([C@H](CCCCN)NC(=O)Cn4nc(CNS(=O)(=O)C(F)(F)F)nc4Cc4ccccc4)O[C@@]3(C)[C@H]1C2 | > 6000 nM | 210 nM | > 3000 nM | – | – | > 1200 nM | 3700 nM | – | –
CC(C)(C)OC(=O)CCc1nc(Cc2ccccc2)n(CC(=O)N[C@@H](CCCCN)B2O[C@@H]3C[C@@H]4C[C@@H](C4(C)C)[C@]3(C)O2)n1 | 760 nM | 5.5 nM | > 3000 nM | – | – | 1.4 nM | 670 nM | – | –
CC1(C)[C@@H]2C[C@H]3OB([C@H](CCCCN)NC(=O)Cn4nc(CC#N)nc4Cc4ccccc4[N+](=O)[O-])O[C@@]3(C)[C@H]1C2 | 4900 nM | 0.8 nM | 3000 nM | – | – | 8.4 nM | – | 2000 nM | –
CC1(C)[C@@H]2C[C@H]3OB([C@H](CCCCN)NC(=O)Cn4nc(-c5cccc(N)c5)nc4Cc4ccccc4)O[C@@]3(C)[C@H]1C2 | > 6000 nM | 150 nM | 1400 nM | – | – | 4.2 nM | – | – | –

Compound | Ki (Coagulation factor X) | Ki (Prothrombin [1]) | Ki (Coagulation factor VII) | Ki [2] | Ki (Prothrombin [3]) | Ki (Serine protease 1) | Ki [4] | Ki [5] | Ki (Prothrombin [6])
CC1(C)[C@@H]2C[C@H]3OB([C@H](CCCCN)NC(=O)Cn4nc(CC#N)nc4Cc4ccccc4)O[C@@]3(C)[C@H]1C2 | > 6000 nM | 3.5 nM | 4200 nM | – | – | 5.6 nM | – | – | 500 nM
CC1(C)[C@@H]2C[C@H]3OB([C@H](CCCCN)NC(=O)Cn4nc(CNC=O)nc4Cc4ccccc4)O[C@@]3(C)[C@H]1C2 | > 6000 nM | 33 nM | 2200 nM | – | – | 6.6 nM | 2700 nM | – | –
CC1(C)[C@@H]2C[C@H]3OB([C@H](CCCCN)NC(=O)Cn4nnnc4CCc4ccccc4)O[C@@]3(C)[C@H]1C2 | – | 33 nM | – | – | – | – | – | – | –
CC1(C)[C@@H]2C[C@H]3OB([C@H](CCCCN)NC(=O)Cn4nc(CC#N)cc4CCc4ccccc4)O[C@@]3(C)[C@H]1C2 | > 6000 nM | 4.6 nM | – | – | – | 35 nM | – | 13000 nM | –
CC1(C)[C@@H]2C[C@H]3OB([C@H](CCCCN)NC(=O)Cn4ncnc4CCc4ccccc4)O[C@@]3(C)[C@H]1C2 | – | 36 nM | – | – | – | – | – | – | –
CC1(C)[C@@H]2C[C@H]3OB([C@H](CCCCN)NC(=O)Cn4nc(CC#N)nc4Cc4cccc([N+](=O)[O-])c4)O[C@@]3(C)[C@H]1C2 | > 6000 nM | 1.8 nM | > 3000 nM | – | – | 23 nM | – | 1900 nM | –
CC1(C)[C@@H]2C[C@H]3OB([C@H](CCCCN)NC(=O)Cn4nc(CS(C)(=O)=O)nc4Cc4ccccc4)O[C@@]3(C)[C@H]1C2 | > 6000 nM | 11 nM | 1900 nM | – | – | 2.1 nM | 2700 nM | – | –
CC1(C)[C@@H]2C[C@H]3OB([C@H](CCCCN)NC(=O)Cn4nc(-c5cccc([N+](=O)[O-])c5)nc4Cc4ccccc4)O[C@@]3(C)[C@H]1C2 | 4200 nM | 85 nM | 2600 nM | – | – | – | – | – | –
CC1(C)[C@@H]2C[C@H]3OB([C@H](CCCCN)NC(=O)Cn4nc(Cc5nn[nH]n5)nc4Cc4ccccc4)O[C@@]3(C)[C@H]1C2 | – | 350 nM | – | – | – | – | – | – | –
CC1(C)[C@@H]2C[C@H]3OB([C@H](CCCCN)NC(=O)Cn4nc(CC#N)nc4CCc4ccccc4)O[C@@]3(C)[C@H]1C2 | > 6000 nM | 2.6 nM | > 3000 nM | – | – | 12 nM | – | 6800 nM | –
CC1(C)[C@@H]2C[C@H]3OB([C@H](CCCCN)NC(=O)Cn4nc(COCc5ccccc5)nc4Cc4ccccc4)O[C@@]3(C)[C@H]1C2 | 1600 nM | 8.7 nM | 1500 nM | – | 1300 nM | – | – | – | –
CC1(C)[C@@H]2C[C@H]3OB([C@H](CCCCN)NC(=O)Cn4nc(CC(=O)O)nc4Cc4ccccc4)O[C@@]3(C)[C@H]1C2 | > 6000 nM | 1700 nM | > 14000 nM | – | – | – | – | – | –
CC1(C)[C@@H]2C[C@H]3OB([C@H](CCCCN)NC(=O)Cn4nc(CCC(=O)O)nc4Cc4ccccc4)O[C@@]3(C)[C@H]1C2 | > 6000 nM | 230 nM | > 3000 nM | – | – | 7.1 nM | > 10000 nM | – | –
CCCc1nc(Cc2ccccc2)n(CC(=O)N[C@@H](CCCCN)B2O[C@@H]3C[C@@H]4C[C@@H](C4(C)C)[C@]3(C)O2)n1 | > 6000 nM | 73 nM | 2400 nM | – | – | 2.3 nM | – | – | –
CC(C)(C)CC(=O)NCc1nc(Cc2ccccc2)n(CC(=O)N[C@@H](CCCCN)B2O[C@@H]3C[C@@H]4C[C@@H](C4(C)C)[C@]3(C)O2)n1 | 4300 nM | 33 nM | > 3000 nM | – | – | 2.7 nM | 1490 nM | – | –

From ChEMBL document CHEMBL1130774, “Pyrazoles, 1,2,4-triazoles, and tetrazoles as surrogates for cis-amide bonds in boronate ester thrombin inhibitors” (Bioorg Med Chem Lett, 1998)
